Results reported in patent publication US20100055712A1, “Oligopeptides for treatment of osteoporosis and other bone diseases and methods therefor” (Washington University, priority 2008, published 2010).
*1 amine or outer side, *2 acyl side, *3 side chain or, on linkers, in order; H or OH if unused. Where a SMILES comes first, the peptide text is derived from it. [ ]: non-standard residue; d: D form. The star is where a group is joined. X1 = CC(N[*:1])C(=O)C(F)(F)C(=O)[*:2]; Boc = CC(C)(C)OC(=O)*

These compounds were tested on LRP1 expression in WT MEF cells (assay: LRP1 expression in WT MEF cells after treatment with γ-secretase inhibitors (western blot)). Conditions: FIGS. 5I and 5J.
Type: cell-based, mouse
Excerpt: The requirement of γ-secretase activity in LRP1 regulation was further verified by two alternative approaches.

SMILES	LRP1 expression
CC(C)C[C@H](NC(=O)[C@H](Cc1ccccc1)C[C@@H](O)[C@H](Cc1ccccc1)NC(=O)OC(C)(C)C)C(=O)N[C@@H](Cc1ccccc1)C(N)=O [L685,458]	enhanced LRP1 expression
C[C@H](NC(=O)Cc1cc(F)cc(F)c1)C(=O)N[C@H](C(=O)OC(C)(C)C)c1ccccc1 [DAPT]	enhanced LRP1 expression
CCC(C)C(NC(=O)C(NC(=O)OC(C)(C)C)C(C)C)C(=O)NC(C)C(=O)C(F)(F)C(=O)NC(C(=O)NC(C(=O)OC)C(C)CC)C(C)C (stereo not drawn) [DFK, DFK167] (Boc-VI[X1]VI-OMe; configuration not given here)	enhanced LRP1 expression
